These results are taken from patent US8906902B2, “Antibacterial compounds” (Biota Europe Ltd., priority 2012, dated 2014).

By AUC is commonly meant the area under the concentration-time curve, a measure of exposure. In general, clearance refers to the volume of plasma or blood freed of the substance per unit of time. Lower therefore signals a low capacity for elimination. By half-life is commonly meant how long it takes for the measured level to halve. What is called solubility (thermodynamic) is the concentration in solution at equilibrium with solid.

Data set [1] can be described thus: Pharmacokinetic profile, rat assay (IV). It is filed as in vivo. To be noted: plasma. The procedure:
The pharmacokinetic profiles of compounds are determined by measuring the compound concentration in plasma by LC/MS/MS following a single intravenous or peroral administration of the compounds at a dose of 1 or 3 mg/kg individually or in a cassette of up to 5 compounds. The concentrations are described as the mean plasma concentrations at each time point from three animals. Intravenous dose formulation is administered as a single bolus dose through the tail vein. Oral dose formulation is administered to animals by an oral gavage needle. In both cases the dose volume is 5.0 mL/kg. Blood is collected from rats using a jugular vein catheter and from anesthetized mice through a capillary guided into the retro-orbital plexus. The collected blood is then centrifuged to obtain plasma and the compounds extracted into methanol prior to determining the compound concentration by LC/MS/MS.
The pharmacokinetic profiles of selected compounds of the invention were compared directly with their primary alcohol analogues, Compounds A and B below, in the rat assay (IV).

Data set [2] concerns S. pneumoniae ATCC6301. Put plainly: Mouse survival model (lung infection). The data set is classed as in vivo. To be noted: CD-1 mice. The procedure:
Anaesthetised female CD-1 mice (18-22 g) were inoculated intranasally with approximately 10^6 cfus of S. pneumoniae ATCC6301 prepared from a fresh overnight culture by placing 50 μl of inoculum on the nares and allowing the mice to inhale. Compounds are administered as indicated at 24, 48 and 72 hours post inoculation and the mice monitored for survival for seven or nine days after infection. […] Similarly, when Compound 17 was dosed IV at 30 mg/kg 90% of mice survived at day seven.

The nature of data set [3]: Thermodynamic solubility. It is filed as physicochemical. As to conditions: aqueous buffer, thermodynamic from solid; pH 7.4, HEPES buffer, 24 hours shaking at room temperature. On the procedure: In a 1.5 mL eppendorf tube, approximately 2 mg of compound is resuspended in a volume of HEPES buffer pH 7.4 to achieve a 5 mg/mL suspension. The tubes are placed on an orbital shaker at room temperature and following shaking for 24 hours the tubes are spun at 1400 rpm in a bench top centrifuge to pellet the undissolved compound. Duplicate 150 μL aliquots of the supernatant are then transferred into two ultracentrifuge tubes and spun at 357440 g for 4 hours at 20° C. 50 μL of the supernatant from each tube is then diluted with 100 μL of methanol and analysed by HPLC or LCMS to determine the concentration of compound in solution by comparing to a standard curve. The thermodynamic solubility of representative Compounds 19, 123, 134 and 153 were tested and determined to be highly soluble, at ≧2 mg/mL, at pH 7.4.

Data set [4] is described as follows: Microsomal stability. The data set is classed as in vitro ADME. To be noted: pH 7.4; mouse liver microsomes; major metabolite the parent alcohol. The procedure:
In a 96 well polypropylene plate, 10 μM compound is prepared in 100 mM KPO4 buffer pH 7.4, 5 mM MgCl2, 25 μg/ml Alamethicin, 1 mg/ml (protein) liver microsomes (mouse) and a final DMSO concentration of 0.1% in 100 μl in duplicate. The plate is pre-incubated at 37° C. for 10 minutes after which reactions are initiated by the addition of NADPH and UDPGA to a final concentration of 1 mM and 5 mM respectively. Reactions are incubated at 37° C. and terminated by the addition of 100 μl DMSO at 0, 10, 30 and 60 minutes. Samples of 100 μl are withdrawn and added to 50 μl ice cold methanol and mixed on an orbital shaker for 10 minutes to precipitate the proteins. The samples are then centrifuged at 4000 rpm and 10° C. for 30 minutes and supernatants are analysed by LCMS. The T1/2 and clearance are determined by linear regression from the peak areas.
For orientation: Liver microsomes are vesicles of endoplasmic reticulum, rich in cytochrome P450 enzymes.

Data set [5] relates to S. aureus (ATCC 29213). Briefly: Antibacterial activity MIC, S. aureus. The data set is classed as cell-based. As to conditions: Staphylococcus aureus, ATCC29213.
Data set [6] deals with S. pyogenes (ATCC 51339). Put plainly: Antibacterial activity MIC, S. pyogenes. It is filed as cell-based. As to conditions: Streptococcus pyogenes, ATCC51339.
Data set [7] has as its system H. influenzae (ATCC 49247). Put plainly: Antibacterial activity MIC, H. influenzae. As to conditions: Haemophilus influenzae, ATCC49247. The data set is classed as cell-based.

In brackets after ≈: the same amount, converted by molar mass. Where only a bound is given, the exact number is not on record here.

Regarding `CCNC(=O)Nc1nc2cc(-c3cnc(C(C)(C)O)nc3)cc(-c3ccccn3)c2s1` [Compound 1, 1-ethyl-3-[5-[2-(1-hydroxy-1-methyl-ethyl)pyrimidin-5-yl]-7-(2-pyridyl)-1,3-benzothiazol-2-yl]urea], in data set [1] (dose 1 mg/kg), the AUC was found to be 3100 ng·h/mL, the clearance is 4.3 mL/min/kg and the half-life is 3.38 h. This molecule also yielded a mice surviving in data set [2] (dosed IV at 10 mg/kg, at seven or nine days) of 80%.

On to `CCNC(=O)Nc1nc2cc(-c3cnc(C(C)O)nc3)cc(-c3ccccn3)c2s1` (stereo not shown) [Compound 17, 1-ethyl-3-[5-[2-(1-hydroxyethyl)pyrimidin-5-yl]-7-(2-pyridyl)-1,3-benzothiazol-2-yl]urea], for which, in data set [1] (dose 3 mg/kg), the exposure (AUC) turned out to be 4000 ng·h/mL, the clearance worked out at 12 mL/min/kg and the half-life is 1.78 h. Moreover, the mice survived in data set [2] (dosed IV at 30 mg/kg, at day seven) was 90%.

Take `CCNC(=O)Nc1nc2cc(-c3cnc(C(C)OC(=O)CCC(=O)O)nc3)cc(-c3ccccn3)c2s1` (stereo not shown) [Compound 19, 4-[1-[5-[2-(ethylcarbamoylamino)-7-(2-pyridyl)-1,3-benzothiazol-5-yl]pyrimidin-2-yl]ethoxy]-4-oxo-butanoic acid]: the solubility (thermodynamic) at 24 h in data set [3] is not below 2000 µg/mL. Besides, the half-life at 10 μM in data set [4] was less than 0.333 h.

Take `CCNC(=O)Nc1nc2cc(-c3ccc(C(C)(C)O)nc3)cc(-c3ccccn3)c2s1` [Compound 27, 1-ethyl-3-[5-[6-(1-hydroxy-1-methyl-ethyl)-3-pyridyl]-7-(2-pyridyl)-1,3-benzothiazol-2-yl]urea]: in data set [1] (dose 1 mg/kg), the area under the curve (AUC) turned out to be 1130 ng·h/mL, the clearance amounted to 13 mL/min/kg and the half-life turned out to be 2.63 h.

As for `CCNC(=O)Nc1nc2cc(-c3cnc(C(C)(C)O)nc3)cc(-c3nccc(N4CCN(CC)CC4)n3)c2s1` [Compound 79, 1-ethyl-3-[7-[4-(4-ethylpiperazin-1-yl)pyrimidin-2-yl]-5-[2-(1-hydroxy-1-methyl-ethyl)pyrimidin-5-yl]-1,3-benzothiazol-2-yl]urea], the MIC in data set [5] and in data set [6] was 2 µg/mL (≈ 3.65 µM) throughout.

On to `CCNC(=O)Nc1nc2cc(-c3cnc(N4CCC(C)(C(=O)O)CC4)nc3)cc(-c3ccc(C(C)(C)O)cn3)c2s1` [Compound 99, 1-[5-[2-(ethylcarbamoylamino)-7-[5-(1-hydroxy-1-methyl-ethyl)-2-pyridyl]-1,3-benzothiazol-5-yl]pyrimidin-2-yl]-4-methyl-piperidine-4-carboxylic acid], for which the MIC in data set [5] was 2 µg/mL (≈ 3.47 µM); in data set [6], not above 1 µg/mL; in data set [7], not above 2 µg/mL.

Consider `CCNC(=O)Nc1nc2cc(-c3cnc(C4(OC(=O)CCC(=O)O)COC4)nc3)cc(-c3ccccn3)c2s1` [Compound 123, 4-[3-[5-[2-(ethylcarbamoylamino)-7-(2-pyridyl)-1,3-benzothiazol-5-yl]pyrimidin-2-yl]oxetan-3-yl]oxy-4-oxo-butanoic acid], for which the solubility (thermodynamic) at 24 h in data set [3] was not below 2000 µg/mL. Moreover, in data set [4], the half-life at 10 μM was less than 0.333 h.

As for `CCNC(=O)Nc1nc2cc(-c3cnc([C@H](C)OC(=O)CCC(=O)O)nc3)cc(-c3ccccn3)c2s1` [Compound 133, 4-[(1S)-1-[5-[2-(ethylcarbamoylamino)-7-(2-pyridyl)-1,3-benzothiazol-5-yl]pyrimidin-2-yl]ethoxy]-4-oxo-butanoic acid], the half-life at 10 μM in data set [4] is less than 0.333 h.

In the case of `CCNC(=O)Nc1nc2cc(-c3cnc([C@@H](C)OC(=O)CCC(=O)O)nc3)cc(-c3ccccn3)c2s1` [Compound 134, 4-[(1R)-1-[5-[2-(ethylcarbamoylamino)-7-(2-pyridyl)-1,3-benzothiazol-5-yl]pyrimidin-2-yl]ethoxy]-4-oxo-butanoic acid], the solubility (thermodynamic) at 24 h in data set [3] was not below 2000 µg/mL. The half-life at 10 μM in data set [4] was less than 0.333 h.

`CCNC(=O)Nc1nc2cc(-c3cnc([C@H](C)OP(=O)(O)O)nc3)cc(-c3ccccn3)c2s1` [Compound 153, [(1S)-1-[5-[2-(ethylcarbamoylamino)-7-(2-pyridyl)-1,3-benzothiazol-5-yl]pyrimidin-2-yl]ethyl]dihydrogen phosphate]: in data set [3], the thermodynamic solubility at 24 h is not below 2000 µg/mL.

In data set [1] (dose 3 mg/kg), `CCNC(=O)Nc1nc2cc(-c3cnc(CO)nc3)cc(-c3ccccn3)c2s1` [Compound A, 1-Ethyl-3-[5-[2-(hydroxymethyl)pyrimidin-5-yl]-7-(2-pyridyl)-1,3-benzothiazol-2-yl]urea, reference compound] had an exposure (AUC) of 2000 ng·h/mL, a clearance of 25 mL/min/kg and a half-life of 1.35 h.

As for `CCNC(=O)Nc1nc2cc(-c3ccc(CO)nc3)cc(-c3ccccn3)c2s1` [Compound B, 1-Ethyl-3-[5-[6-(hydroxymethyl)-3-pyridyl]-7-(2-pyridyl)-1,3-benzothiazol-2-yl]urea, reference compound], in data set [1] (dose 3 mg/kg), the AUC came out at 1800 ng·h/mL, the clearance was 28 mL/min/kg and the half-life was found to be 1 h.

Turning to `CC(=O)NC[C@H]1CN(c2ccc(N3CCOCC3)c(F)c2)C(=O)O1` [Linezolid, reference compound], the “survival of mice (in words)” value in data set [2] (dosed with 10 mg/kg) is listed as “dead by day six”.
